Source: ChEMBL document CHEMBL3885861, “Open TG-GATES”

Organism: Rattus norvegicus
Assay: Open TG-GATES - Regimen: Daily Repeat
Format: toxicity, organism-based, Sprague-Dawley
Design: regimen Daily Repeat, gender Male, age 6 weeks
Conditions: in vivo, po, 100 mg/kg, route gavage, dose level Middle; for APTT / Bas / Eos / Fbg / Hb / Ht / Lym / MCH / MCHC / MCV / Mono / Neu / PT / Plat / RBC / Ret / WBC: tissue Blood; for ALP / ALT / AST / BUN / CRE / DBIL / GLC / IP / K / Na / PL / RALB / TBIL / TC / TG / TP / gamma-GTP: tissue Plasma

NS(=O)(=O)c1cc(C(=O)O)c(NCc2ccco2)cc1Cl [FUROSEMIDE]
TERMINAL_BW (72 h, time 3 day): 230.7 g | APTT (72 h, time 3 day): 16.9 s | Bas (72 h, time 3 day): 0% | Eos (72 h, time 3 day): 0.8% | Fbg (72 h, time 3 day): 296.8 mg/dL | Hb (72 h, time 3 day): 13.1 g/dL | Ht (72 h, time 3 day): 38.3% | Lym (72 h, time 3 day): 81.2% | MCH (72 h, time 3 day): 21.4 pg | MCHC (72 h, time 3 day): 34.1% | MCV (72 h, time 3 day): 62.7 fL | Mono (72 h, time 3 day): 2.2% | Neu (72 h, time 3 day): 14.8% | PT (72 h, time 3 day): 15 s | Plat (72 h, time 3 day): 123 x10_4/uL | RBC (72 h, time 3 day): 611.2 x10_4/ul | Ret (72 h, time 3 day): 4.2% | WBC (72 h, time 3 day): 107.2 x10_2/uL | ALP (72 h, time 3 day): 1617.4 IU/L | ALT (72 h, time 3 day): 47.4 IU/L | AST (72 h, time 3 day): 68.8 IU/L | BUN (72 h, time 3 day): 22.8 mg/dL | CRE (72 h, time 3 day): 0.2 mg/dL | DBIL (72 h, time 3 day): 0.014 mg/dL | GLC (72 h, time 3 day): 176.6 mg/dL | IP (72 h, time 3 day): 6.3 mg/dL | K (72 h, time 3 day): 3.6 meq/L | Na (72 h, time 3 day): 141.4 meq/L | PL (72 h, time 3 day): 174 mg/dL | RALB (72 h, time 3 day): 2.6 g/dL | TBIL (72 h, time 3 day): 0.054 mg/dL | TC (72 h, time 3 day): 90 mg/dL | TG (72 h, time 3 day): 65 mg/dL | TP (72 h, time 3 day): 5.6 g/dL | gamma-GTP (72 h, time 3 day): 0.4 IU/L | TERMINAL_BW ([…], time 7 day): 247.4 g | TERMINAL_BW ([…], time 14 day): 311 g | TERMINAL_BW ([…], time 28 day): 380.8 g | APTT ([…], time 7 day): 17.5 s | Bas ([…], time 7 day): 0.4% | Eos ([…], time 7 day): 1.2% | Fbg ([…], time 7 day): 278 mg/dL | Hb ([…], time 7 day): 14.1 g/dL | Ht ([…], time 7 day): 40.4% | Lym ([…], time 7 day): 82% | MCH ([…], time 7 day): 20.8 pg | MCHC ([…], time 7 day): 34.9% | MCV ([…], time 7 day): 59.7 fL | Mono ([…], time 7 day): 1.8% | Neu ([…], time 7 day): 13.8% | PT ([…], time 7 day): 16 s | Plat ([…], time 7 day): 114.3 x10_4/uL | RBC ([…], time 7 day): 678.6 x10_4/ul | Ret ([…], time 7 day): 4.3% | WBC ([…], time 7 day): 110.3 x10_2/uL | APTT ([…], time 14 day): 16.7 s | Bas ([…], time 14 day): 0.6% | Eos ([…], time 14 day): 1% | Fbg ([…], time 14 day): 253.8 mg/dL | Hb ([…], time 14 day): 14.7 g/dL | Ht ([…], time 14 day): 42.1% | Lym ([…], time 14 day): 82.2% | MCH ([…], time 14 day): 20.5 pg | MCHC ([…], time 14 day): 34.9% | MCV ([…], time 14 day): 58.6 fL | Mono ([…], time 14 day): 2% | Neu ([…], time 14 day): 13.2% | PT ([…], time 14 day): 15.7 s | Plat ([…], time 14 day): 108.7 x10_4/uL | RBC ([…], time 14 day): 717.4 x10_4/ul | Ret ([…], time 14 day): 3.8% | WBC ([…], time 14 day): 124.3 x10_2/uL | APTT ([…], time 28 day): 17.5 s | Bas ([…], time 28 day): 1% | Eos ([…], time 28 day): 1% | Fbg ([…], time 28 day): 251.8 mg/dL | Hb ([…], time 28 day): 14.7 g/dL | Ht ([…], time 28 day): 42.7% | Lym ([…], time 28 day): 80% | MCH ([…], time 28 day): 19.2 pg | MCHC ([…], time 28 day): 34.5% | MCV ([…], time 28 day): 55.6 fL | Mono ([…], time 28 day): 1.6% | Neu ([…], time 28 day): 16.2% | PT ([…], time 28 day): 15.7 s | Plat ([…], time 28 day): 98.3 x10_4/uL | RBC ([…], time 28 day): 769.2 x10_4/ul | Ret ([…], time 28 day): 2.5% | WBC ([…], time 28 day): 125.7 x10_2/uL | ALP ([…], time 7 day): 1748.4 IU/L | ALT ([…], time 7 day): 43.8 IU/L | AST ([…], time 7 day): 73.4 IU/L | BUN ([…], time 7 day): 17.8 mg/dL | CRE ([…], time 7 day): 0.2 mg/dL | DBIL ([…], time 7 day): 0.012 mg/dL | GLC ([…], time 7 day): 179 mg/dL | IP ([…], time 7 day): 6.2 mg/dL | K ([…], time 7 day): 3.8 meq/L | Na ([…], time 7 day): 142.4 meq/L | PL ([…], time 7 day): 152 mg/dL | RALB ([…], time 7 day): 2.6 g/dL | TBIL ([…], time 7 day): 0.044 mg/dL | TC ([…], time 7 day): 71.4 mg/dL | TG ([…], time 7 day): 84.4 mg/dL | TP ([…], time 7 day): 5.7 g/dL | gamma-GTP ([…], time 7 day): 0.2 IU/L | ALP ([…], time 14 day): 1743.4 IU/L | ALT ([…], time 14 day): 44.2 IU/L | AST ([…], time 14 day): 78.6 IU/L | BUN ([…], time 14 day): 24.6 mg/dL | CRE ([…], time 14 day): 0.2 mg/dL | DBIL ([…], time 14 day): 0.016 mg/dL | GLC ([…], time 14 day): 177 mg/dL | IP ([…], time 14 day): 6.5 mg/dL | K ([…], time 14 day): 3.7 meq/L | Na ([…], time 14 day): 143.8 meq/L | PL ([…], time 14 day): 160.6 mg/dL | RALB ([…], time 14 day): 2.6 g/dL | TBIL ([…], time 14 day): 0.048 mg/dL | TC ([…], time 14 day): 78.4 mg/dL | TG ([…], time 14 day): 107.6 mg/dL | TP ([…], time 14 day): 5.7 g/dL | gamma-GTP ([…], time 14 day): 0.6 IU/L | ALP ([…], time 28 day): 1073.6 IU/L | ALT ([…], time 28 day): 42.8 IU/L | AST ([…], time 28 day): 70.4 IU/L | BUN ([…], time 28 day): 24 mg/dL | CRE ([…], time 28 day): 0.2 mg/dL | DBIL ([…], time 28 day): 0.02 mg/dL | GLC ([…], time 28 day): 178.2 mg/dL | IP ([…], time 28 day): 5.7 mg/dL | K ([…], time 28 day): 3.7 meq/L | Na ([…], time 28 day): 144.8 meq/L | PL ([…], time 28 day): 143.4 mg/dL | RALB ([…], time 28 day): 2.6 g/dL | TBIL ([…], time 28 day): 0.052 mg/dL | TC ([…], time 28 day): 66 mg/dL | TG ([…], time 28 day): 109.2 mg/dL | TP ([…], time 28 day): 6 g/dL | gamma-GTP ([…], time 28 day): 0.4 IU/L
